Marks after values point to notes of the source that are not given here.
Columns and labels:
[1] = test system: HEK293A cells; test: Resazurin assay to assess acute toxicity of common tissue culture antibiotics; assay type: cell-based, human; settings: two-day treatment; for acute toxicity (cell viability by resazurin fluorescence): various concentrations
Description: FIGS. 46A-46D. Resazurin assay to assess acute toxicity of common tissue culture antibiotics. HEK293A cells were treated for two days with either G418 (FIG. 46A), puromycin (FIG. 46B), blasticidin (FIG. 46C), or hygromycin (FIG. 46D), and cell viability was analyzed by resazurin fluorescence.
A 96-well plate was seeded with HEK293A cells (˜15,000) and treated with either puromycin HCl (Corning), Hygromycin B (Thermo Fisher), Blasticidin S HCl (Thermo Fisher), or G418 (Enzo). Two days later, 10 μL of 0.1 mg/mL resazurin (MilliporeSigma) was added and incubated for 1.5 h. Media was transferred to a fresh 96-well plate and fluorescence was analyzed on a Bio-Tek Synergy H1 Hybrid Microplate Reader.

[2] = test system: RFP.ΔAdPol.adenovirus; test: Time course of antibiotic inhibition of adenoviral replication; assay type: cell-based, Adenovirus type 5; settings: treatment initiated 24 h post-infection
From the text: FIGS. 47A-47B. Time-course of antibiotic-mediated inhibition of adenoviral infection. HEK293A cells expressing wild-type AdPol were infected with RFP.ΔAdPol.adenovirus and treated with either a) puromycin, or b) blasticidin at various time points post-infection (h.p.i.=hours post-infection). After 2 days, the infections were harvested and titered by flow cytometry. Titers are given in infectious units per milliliter (IU/mL), defined as the volume of adenoviral supernatant required to induce fluorescence in a cell as analyzed by flow cytometry. Dashed line represents the limit of detection (L.O.D) of the assay. Titers below this limit are inaccurate due to the percentage of infected cells being below the 1% error threshold of flow cytometry.
RFP.ΔAdPol.adenovirus (TABLE 16) was used to infect a 24-well plate of wild-type AdPol cells (150,000 cells/well) (TABLE 17) at MOI=1, and either blasticidin or puromycin was added at various time points following the infection. Viral supernatants were harvested ˜48 h post-infection, and titered by flow cytometry as described above.

[3] = test system: ΔAdPol.adenovirus encoding either tTA or RFP; test: tTA-induced resistance to antibiotic inhibition of adenoviral replication; assay type: cell-based, Adenovirus type 5; settings: treatment 10 h post-infection
Description: FIGS. 48A-48D. tTA-induced resistance to antibiotic mediated inhibition of adenoviral infection. Either wild-type AdPol cells, TRE3G.puroR cells, or TRE3G.blastR cells were infected with ΔAdPol.adenovirus encoding either tTA (+tTA) or RFP (−tTA). Ten hours post-infection, wild-type AdPol cells were treated with either puromycin (FIG. 48A) or (FIG. 48B) blasticidin, TRE3G.puroR cells were treated with puromycin (FIG. 48C), and TRE3G.blastR cells were treated with blasticidin (FIG. 48D). After 2, days, the infections were harvested and titered by flow cytometry. Titers are given in infectious units per milliliter (IU/mL), defined as the volume of adenoviral supernatant required to induce fluorescence in a cell as analyzed by flow cytometry. Dashed line represents the limit of detection (L.O.D) of the assay. Titers below this limit are inaccurate owing to the percentage of infected cells being below the 1% error threshold of flow cytometry.
Either RFP.ΔAdPol.adenovirus, or tTA.mCherry.ΔAdPol.adenovirus (TABLE 16) was used to infect a 24-well plate of either wild-type AdPol cells, TRE3G.puroR cells, or TRE3G.blastR cells (150,000 cells/well) (TABLE 17) at MOI=1, and either puromycin or blasticidin was added 10 h post-infection. Viral supernatants were harvested ˜48 h post-infection, and titered by flow cytometry as described above.

[4] = test system: endogenous tTA operator (pLVX-TRE3G.eGFP reporter); test: Reverse genetics of tTA variants with pLVX-TRE3G.eGFP reporter in HEK293A cells; assay type: cell-based, human; settings: transient co-transfection with eGFP reporter, presence or absence of 20 μM dox
From the text: FIGS. 22A-22F. FIG. 22A. Serial-passaging schemes for evolving functional tTA variants that gain dox resistance in human cells. Two approaches to selection pressure were used, either with increasing dox concentrations (Trial 1) or a constant, moderate dox concentration (Trial 2). FIG. 22B. tTA-induced GFP expression in the presence of dox after each round of evolution for Trial 1. Phenotyping cells were infected with passaged viral populations and analyzed by flow cytometry. The percentage of infected GFP-positive cells at each passage in the presence of dox was normalized to the percentage of infected GFP-positive cells at each passage in the absence of dox. N.D.=not detectable owing to low viral titer. FIG. 22C. Non-reference allele frequencies for all mutations observed at >1% frequency over the course of the directed evolution experiment for Trial 1 (see FIG. 28 for Trial 2). […]
HEK-293A cells were seeded in a 12-well plate at ˜4×10^5 cells/well. […] 48 h post-transfection, cells were analyzed by flow cytometry (see above for sample preparation). Promoter activity was calculated based on the mean fluorescence intensity of GFP fluorescence, backgated for only mCherry-expressing cells.
HEK-293A cells were seeded in a 12-well plate (˜400,000 cells/well). […] 48 h post-transfection, samples were stained with 0.2 μg/mL DAPI, and analyzed on a BD LSR II analyzer.

[5] = test system: AdGLΔPol adenoviral genome; test: Mutagenesis rate determination by serial passaging and deep sequencing of a 6.5 kb fragment; assay type: cell-based, Adenovirus type 5
Description: The mutagenic potential of AdPol variants was evaluated following a previously reported protocol (Uil T. G. et al., Nucleic Acids Res. 39, e30 (2011)). Briefly, a polymerase-deleted Ad5, AdGLΔPol, was subjected to 10 serial passages on cultures of 911 cells (Fallaux F. J. et al., Hum. Gene Ther. 7, 215-222 (1996)) expressing EP-Pol in order to accumulate mutations. After 10 serial passages, 911 cells expressing wild-type AdPol were infected in a 6-well plate at ˜50 plaque-forming units/well in order to amplify pools of 50 viral clones for sequencing. Using pools of 50 or fewer clonal viruses ensured that mutations present in only one clone will be present at a frequency above the threshold of detection. From each 50-clone viral pool, a 6.5-kb fragment was amplified and prepared for deep sequencing. Libraries were subjected to 32 cycles of single-read sequencing by an Illumina Genome Analyzer II.
The mutagenic potential of EP-Pol was evaluated following a previously reported protocol (Uil T. G. et al., Nucleic Acids Res., 39(5): e30 (2011)). Briefly, a polymerase-deleted Ad5, AdGLΔAdPol, was subjected to 10 serial passages on cultures of 911 cells expressing EP-Pol in order to accumulate mutations. After 10 serial passages, 911 cells expressing wild-type AdPol were infected in a 6-well plate at ˜50 plaque-forming units/well in order to amplify pools of 50 viral clones for sequencing. Using pools of 50 or fewer clonal viruses ensures that mutations present in only one clone will be present at a frequency above the threshold of detection. From each 50-clone viral pool, a 6.5 kb fragment was amplified and prepared for deep sequencing. Libraries were subjected to 32 cycles of single-read sequencing by an Illumina Genome Analyzer II (GA-II).

CN[C@@H]1[C@@H](O)[C@@H](O[C@@H]2[C@@H](O)[C@H](O[C@H]3O[C@H]([C@@H](C)O)[C@@H](O)[C@H](O)[C@H]3N)[C@@H](N)C[C@H]2N)OC[C@]1(C)O [G418]
acute toxicity (cell viability by resazurin fluorescence) [1]: only mildly toxic at the highest concentrations

COc1ccc(C[C@H](N)C(=O)N[C@H]2[C@@H](O)[C@H](n3cnc4c(N(C)C)ncnc43)O[C@@H]2CO)cc1 [puromycin]
dynamic range of inhibitory concentrations [1]: less than two orders of magnitude
acute toxicity (cell viability by resazurin fluorescence) [1]: completely toxic
inhibition of adenoviral replication [2]: Neither puromycin nor blasticidin were able to inhibit adenoviral replication
effect on ΔAdPol.adenovirus replication ([3]; TRE3G.puroR cell line): equally toxic to both tTA-expressing and RFP-expressing ΔAdPol.adenovirus
effect on ΔAdPol.adenovirus replication ([3]; wild-type AdPol cell line): inhibited both RFP-expressing and tTA-expressing ΔAdPol.adenovirus replication

E147K: tTA variant with single amino acid substitution E147K, fixed in Trial 1
dox-resistance of tTA variant [4]: confer dox-resistance

H100Y: tTA variant with single amino acid substitution H100Y, fixed in Trial 2
dox-resistance of tTA variant [4]: confer dox-resistance

B1: EP-Pol (protein)
chain: MALAQAHRARRLHAEAPDSGDQPPRRRVRQQPTRAAPAPARARRRRAPAPSPGGSGAPPTSGGSPASPLLDASSKDTPAAHRPPRGTVVAPRGCGLLQAIDAATNQPLEIRYHLDLARALTRLCEVNLQELPPDLTPRELQTMDSSHLRDVVIKLRPPRADIWTLGSRGVVVRSTVTPLEQPDGQGQAAEVEDHQPNPPGEGLKFPLCFLVRGRQVNLVQDVQPVHRCQYCARFYKSQHECSARRRDFYFHHINSHSSNWWREIQFFPIGSHPRTERLFVTYDVETYTWMGAFGKQLVPFMLVMKFGGDEPLVTAARDLAANLGWDRWEQDPLTFYCITPEKMAIGRQFRTFRDHLQMLMARDLWSSFVASNPHLADWALSEHGLSSPEELTYEELKKLPSIKGIPRFLELYIVGHNINGYDEIVLAAQVINNRSEVPGPFRITRNFMPRAGKILFNDVTFALPNPRSKKRTDFLLWEQGGCDDTDFKYQYLKVMVRDTFALTHTSLRKAAQAYALPVEKGCCAYQAVNQFYMLGSYRSEADGFPIQEYWKDREEFVLNRELWKKKGQDKYDIIKETLDYCALDVQVTAELVNKLRDSYASFVRDAVGLTDASFNVFQRPTISSNSHAIFRQIVFRAEQPARSNLGPDLLAPSHELYDYVRASIRGGRCYPTYLGILREPLYVYDICGMYASALTHPMPWGPPLNPYERALAARAWQQALDLQGCKIDYFDARLLPGVFTVDADPPDETQLDPLPPFCSRKGGRLCWTNERLRGEVATSVDLVTLHNRGWRVHLVPDERTTVFPEWRCVAREYVQLNIAAKERADRAKNQTLRSIAKLLSNALYGSFATKLDNKKIVFSDQMDAATLKGITAGQVNIKSSSFLETDNLSAEVMPAFQREYSPQQLALADSDAEESEDERAPTPFYSPPSGTPGHVAYTYKPITFLDAEEGDMCLHTLERVDPLVDNDRYPSHLASFVLAWTRAFVSEWSEFLYEEDRGTPLEDRPLKSVYGDTDSLFVTERGHRLMETRGKKRIKKHGGNLVFDPERPELTWLVECETVCGACGADAYSPESVFLAPKLYALKSLHCPSCGASSKGKLRAKGHAAEGLDYDTMVKCYLADAQGEDRQRFSTSRTSLKRTLASAQPGAHPFTVTQTTLTRTLRPWKDMTLARLDEHRLLPYSESRPNPRNEEICWIEMPYPYDVPDYA
modifications: HA tag
Substitution load per million bp ([5]; 6020 bp analyzed, 27.3 clones estimated): 365 per million bp
mutations introduced into the genome ([5]; adenoviral genome ~35 kb): ~1.3 mutations per infected cell pe
Substitutions per Ad genome per viral generation ([5]; assuming a genome size of 36 kb, 27.3 genomes, 10 passages = 10 generations): 1.31**
mutation rate relative to the error rate of wild-type AdPol evaluated by the same method ([5]; comparison with Uil et al. 2011): ~370 fold
mutation rate ([5]; next-generation sequencing of a 6.5 kb region in a small pool of passaged clones): approximately 3.7×10^−5 per base per cell infection cycle
